The record followed here is patent publication US20250333418A1, “PURINE COMPOUNDS, COMPOSITIONS COMPRISING THEM AND USES THEREOF” (Novo Nordisk A/S, priority 2022, published 2025).

Molecules are shown by their SMILES. pIC50: −log10 of the molar value.

The target of assay [1] is T1, human CB1 receptor (Homo sapiens, UniProt P21554).
T1 construct: expressed in transfected cells; host or cells: HEK293
The experiment in a line: bioSensAll β-arrestin2 plasma membrane translocation (+GRK2) BRET biosensor assay in HEK293 cells transfected with hCB1; test compound added before EC75-80 of agonist CP55,940 (100 nM). The settings on record: βArrestin2 (+GRK2) BRET biosensor, vs CP55,940 100 nM (EC75-80), read-out: CB1 wt βarr2 IC50. The class given is cell-based. The method in brief: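 Antagonist mode: compound at 12 concentrations up to 600 nM, then 100 nM CP55,940 3–5 min later, on hCB1-transfected HEK293 cells carrying the β-arrestin2 plasma-membrane biosensor plus GRK2. After overnight 37 °C incubation, 515/400 nm BRET ratio measured with 2 µM methoxy e-CTZ and standardized against positive/negative controls.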
In general terms: BRET reads energy transfer from a luciferase to a nearby fluorophore.

Assay [2] addresses T1, human CB1 receptor. The experiment in a line: bioSensAll GAPL-Gi2 BRET biosensor assay in HEK293 cells transfected with hCB1; test compound added before EC75-80 of agonist CP55,940 (0.1 nM). The class given is cell-based. The settings on record: vs CP55,940 0.1 nM (EC75-80), read-out: CB1 wt Gi2 IC50. In outline: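 Test compounds at 12 doses up to 600 nM preceded a 0.1 nM CP55,940 challenge in hCB1/GAPL-Gi2 HEK293 cells. After overnight 37° C incubation, methoxy e-coelenterazine (2 µM final) was added and the 515/400 nm BRET ratio normalized to positive and negative controls.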

T1 sequence (P21554 whole entry): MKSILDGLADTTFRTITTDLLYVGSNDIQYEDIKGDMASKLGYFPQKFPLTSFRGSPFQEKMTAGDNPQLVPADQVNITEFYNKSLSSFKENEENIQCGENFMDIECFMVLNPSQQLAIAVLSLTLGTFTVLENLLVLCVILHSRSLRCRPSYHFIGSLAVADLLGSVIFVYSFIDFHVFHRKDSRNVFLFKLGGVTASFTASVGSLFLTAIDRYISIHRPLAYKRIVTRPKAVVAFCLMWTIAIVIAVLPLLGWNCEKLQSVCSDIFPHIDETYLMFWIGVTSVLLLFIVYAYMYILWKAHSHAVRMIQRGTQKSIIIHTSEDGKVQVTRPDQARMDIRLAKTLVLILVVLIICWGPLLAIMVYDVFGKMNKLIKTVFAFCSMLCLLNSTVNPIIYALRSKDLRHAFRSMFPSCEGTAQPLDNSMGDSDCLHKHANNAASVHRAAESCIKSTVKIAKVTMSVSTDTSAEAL

Usually pIC50 stands for the IC50 on a negative log10 scale, so that one unit is a factor of ten. Turning to `CN(CCO)c1nc(N(C)CCO)c2nc(-c3ccccc3Cl)n(-c3ccc(Cl)cc3)c2n1` [Compound 200], the pIC50 is 7.60 at human CB1 receptor [1] and 8.76 on human CB1 receptor [2].
The corresponding values for `CC(C)(O)COc1nc(N2C[C@H]3C[C@@H]2CO3)c2nc(-c3ccccc3Cl)n(-c3ccc(Cl)cc3)c2n1` [Compound 203] are 8.19 and 8.86.
For the compound `CC(C)(O)COc1nc(N2C[C@@H]3C[C@H]2CO3)c2nc(-c3ccccc3Cl)n(-c3ccc(Cl)cc3)c2n1` [Compound 204], the pIC50 on human CB1 receptor [1] is 7.78; on human CB1 receptor [2], 8.40.
Taken in the same sequence, the figures for `CC(C)Oc1nc(OC(C)C)c2nc(-c3ccccc3Cl)n(-c3ccc(Cl)cc3)c2n1` [Compound 205] were 7.26 and 8.22.
The corresponding values for `C[C@@H]1CN(c2nc(OCC(C)(C)O)nc3c2nc(-c2ccccc2Cl)n3-c2ccc(Cl)cc2)CCO1` [Compound 206] are 8.16 and 9.11.
With `CCOC1(C(N)=O)CCN(c2nc(OCC(C)(C)O)nc3c2nc(-c2ccccc2Cl)n3-c2ccc(Cl)cc2)CC1` [Compound 207], the pIC50 was 8.69 on human CB1 receptor [1] and 9.19 at human CB1 receptor [2].
The corresponding values for `CC(C)(O)COc1nc(N2CCS(=O)(=O)CC2)c2nc(-c3ccccc3Cl)n(-c3ccc(Cl)cc3)c2n1` [Compound 209] are 7.83 and 8.87.
The corresponding values for `C[C@H]1CN(c2nc(OCC(C)(C)O)nc3c2nc(-c2ccccc2Cl)n3-c2ccc(Cl)cc2)CCO1` [Compound 210] are 7.73 and 8.81.
The corresponding values for `C[C@H]1COCCN1c1nc(OCC(C)(C)O)nc2c1nc(-c1ccccc1Cl)n2-c1ccc(Cl)cc1` [Compound 211] are 8.16 and 9.03.
Consider `C[C@@H]1COCCN1c1nc(OCC(C)(C)O)nc2c1nc(-c1ccccc1Cl)n2-c1ccc(Cl)cc1` [Compound 212], for which the pIC50 at human CB1 receptor [1] is 7.59; at human CB1 receptor [2] it was 8.60.
The corresponding values for `COC1(C(N)=O)CCN(c2nc(OCC(C)(C)O)nc3c2nc(-c2ccccc2Cl)n3-c2ccc(Cl)cc2)CC1` [Compound 213] are 8.11 and 8.73.
For `CC(C)(O)COc1nc(N2CC3CCC(C2)O3)c2nc(-c3ccccc3Cl)n(-c3ccc(Cl)cc3)c2n1` [Compound 214], the pIC50 at human CB1 receptor [1] is 8.22; at human CB1 receptor [2], 8.96.
The corresponding values for `CC(C)OC1(C(N)=O)CCN(c2nc(OCC(C)(C)O)nc3c2nc(-c2ccccc2Cl)n3-c2ccc(Cl)cc2)CC1` [Compound 215] are 8.79 and 9.15.
The corresponding values for `CC(C)(O)COc1nc(N2CCC(C)(C(=O)O)CC2)c2nc(-c3ccccc3Cl)n(-c3ccc(Cl)cc3)c2n1` [Compound 220] are 7.63 and 8.46.
The corresponding values for `CC(C)(O)COc1nc(N2CCNCC(F)(F)C2)c2nc(-c3ccccc3Cl)n(-c3ccc(Cl)cc3)c2n1` [Compound 221] are 7.51 and 8.39.
In the case of `CC(=O)N1CCN(c2nc(OCC(C)(C)O)nc3c2nc(-c2ccccc2Cl)n3-c2ccc(Cl)cc2)CC1` [Compound 222], the pIC50 is 8.10 at human CB1 receptor [1] and 8.81 on human CB1 receptor [2].
The corresponding values for `CC1(C(N)=O)CCN(c2nc(N3CC[C@@](C)(O)C3)nc3c2nc(-c2ccccc2Cl)n3-c2ccc(Cl)cc2)CC1` [Compound 223] are 8.55 and 9.04.
The corresponding values for `COC(=O)N1CCN(c2nc(OCC(C)(C)O)nc3c2nc(-c2ccccc2Cl)n3-c2ccc(Cl)cc2)CC1` [Compound 224] are 8.10 and 8.90.
In the case of `CC(=O)NC1(C)CCN(c2nc(OCC(C)(C)O)nc3c2nc(-c2ccccc2Cl)n3-c2ccc(Cl)cc2)CC1` [Compound 226], the pIC50 is 8.64 on human CB1 receptor [1] and 9.12 at human CB1 receptor [2].
Taken in the same sequence, the figures for `CN1CCN(c2nc(OCC(C)(C)O)nc3c2nc(-c2ccccc2Cl)n3-c2ccc(Cl)cc2)CC1` [Compound 227] were 7.93 and 8.32.
The corresponding values for `CN1C[C@H](F)C[C@H]1COc1nc(N2CCC(C)(C(N)=O)CC2)c2nc(-c3ccccc3Cl)n(-c3ccc(Cl)cc3)c2n1` [Compound 228] are 8.64 and 8.92.
Taken in the same sequence, the figures for `CN1C[C@H](F)C[C@H]1COc1nc(N2CCC(C)(C(N)=O)CC2)c2nc(-c3ccccc3Cl)n(-c3ccc(Cl)cc3)c2n1` [Compound 232] were 8.71 and 9.03.
`CN1C[C@H](Oc2nc(N3CCC(C)(C(N)=O)CC3)c3nc(-c4ccccc4Cl)n(-c4ccc(Cl)cc4)c3n2)C[C@H]1CO` [Compound 236]: the values for the pIC50 on human CB1 receptor [1] and at human CB1 receptor [2] were 7.64 and 8.54, respectively.
The corresponding values for `NC(=O)C1CN(c2nc(N3CCC[C@H]3CO)nc3c2nc(-c2ccccc2Cl)n3-c2ccc(Cl)cc2)C1` [Compound 237] are 8.71 and 9.21.
The corresponding values for `CCN1CCN(c2nc(OCC(C)(C)O)nc3c2nc(-c2ccccc2Cl)n3-c2ccc(Cl)cc2)CC1` [Compound 240] are 7.91 and 8.24.
